Assay: Topical application of the preparation to affected skin areas of plaque psoriasis patients
Assay type: in vivo, human
Details: twice daily, six to twelve weeks
From the text: The topical application using the preparation herein for treatment of psoriasis according to the present invention, to accelerate healing, merely requires a once to twice daily application of the formed preparation to the affected areas for a period of six to twelve weeks. Generally, no special precautions are required other than the general precautions which accompany the topical application of topical steroids to the skin. Evaluation of the effectiveness of the preparation herein, is by simple examination of the patient and reduction of rash and other skin symptoms, and by changes in the amounts of itching present.
Topical application of the preparation for plaque psoriasis treatment herein to affected skin areas, on a twice, daily basis, generally produces beneficial effects on plaque psoriasis when applied over a period of time between six to twelve weeks. […] The clearing noted lasting for a prolonged period after treatment. […]
In a regimen for treatment of plaque psoriasis patients, the preparation herein is mixed and provided to the patient for topical application twice daily for a period of six to twelve weeks, depending on the individual patient results which may be evaluated after each four to six week period by an examination of the areas of body of the patient, and the reduction or total clearing of rash and other skin symptoms in those area. […]

With `CCC(=O)O[C@]1(C(=O)CCl)[C@@H](C)C[C@H]2[C@@H]3CCC4=CC(=O)C=C[C@]4(C)[C@@]3(F)[C@@H](O)C[C@@]21C` [clobetasol propionate] the “outcome of topical treatment of plaque psoriasis (clearing of affected areas), in words” value was “reduction or elimination of the plaque psoriasis”.
